Reference: PubChem BioAssay (NCI)
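GI50 = concentration required for 50% inhibition of growth. The concentration for full growth arrest is given as TGI.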

Assays:
Test in all cases: DTP human tumour cell line panel, 384-well format
TK-10 renal = test system: TK-10 renal
KM12 colon = test system: KM12 colon
SK-MEL-28 melanoma = test system: SK-MEL-28 melanoma
NCI-H460 NSCLC = test system: NCI-H460 NSCLC
SF-539 CNS = test system: SF-539 CNS
HCT-15 colon = test system: HCT-15 colon
NCI-H226 lung = test system: NCI-H226 lung
ACHN renal = test system: ACHN renal
MALME-3M melanoma = test system: MALME-3M melanoma
CAKI-1 renal = test system: CAKI-1 renal
HOP-62 NSCLC = test system: HOP-62 NSCLC
IGROV1 ovarian = test system: IGROV1 ovarian
PC-3 prostate = test system: PC-3 prostate
T-47D breast = test system: T-47D breast
OVCAR-4 ovarian = test system: OVCAR-4 ovarian
EKVX NSCLC = test system: EKVX NSCLC
SF-295 CNS = test system: SF-295 CNS
HT29 colon = test system: HT29 colon
SF-268 CNS = test system: SF-268 CNS
SN12C renal = test system: SN12C renal
M14 melanoma = test system: M14 melanoma
NCI-H23 lung = test system: NCI-H23 lung
LOX IMVI melanoma = test system: LOX IMVI melanoma
A549 NSCLC = test system: A549 NSCLC
UACC-257 melanoma = test system: UACC-257 melanoma
A498 renal = test system: A498 renal
OVCAR-8 ovarian = test system: OVCAR-8 ovarian
OVCAR-5 ovarian = test system: OVCAR-5 ovarian
SK-MEL-5 melanoma = test system: SK-MEL-5 melanoma
MDA-MB-468 breast = test system: MDA-MB-468 breast
HCT-116 colon = test system: HCT-116 colon
HCC-2998 colon = test system: HCC-2998 colon
MCF7 breast = test system: MCF7 breast
U251 glioblastoma = test system: U251 glioblastoma
COLO 205 colon = test system: COLO 205 colon
MDA-MB-435 melanoma = test system: MDA-MB-435 melanoma
HL-60(TB) leukemia = test system: HL-60(TB) leukemia
NCI/ADR-RES ovarian = test system: NCI/ADR-RES ovarian
RXF 393 renal = test system: RXF 393 renal
SNB-75 CNS = test system: SNB-75 CNS
RPMI-8226 leukemia = test system: RPMI-8226 leukemia
UACC-62 melanoma = test system: UACC-62 melanoma
DU-145 prostate = test system: DU-145 prostate
OVCAR-3 ovarian = test system: OVCAR-3 ovarian
NCI-H322M lung = test system: NCI-H322M lung
SK-OV-3 ovarian = test system: SK-OV-3 ovarian
HOP-92 NSCLC = test system: HOP-92 NSCLC
HS 578T breast = test system: HS 578T breast
MDA-MB-231 breast = test system: MDA-MB-231 breast
SNB-19 CNS = test system: SNB-19 CNS
NCI-H522 lung = test system: NCI-H522 lung
SR leukemia = test system: SR leukemia
BT-549 breast = test system: BT-549 breast
MOLT-4 leukemia = test system: MOLT-4 leukemia

Work on `CC(=O)O/N=C1/C(c2c(O)[nH]c3cc(Br)ccc23)=Nc2ccccc21` yielded a GI50 (TK-10 renal) of 0.356 µM, a TGI (TK-10 renal) of 1.59 µM and a GI50 (KM12 colon) of 0.532 µM. It also gave a TGI (KM12 colon) of 2.01 µM, a GI50 (SK-MEL-28 melanoma) of 1.67 µM and a TGI (SK-MEL-28 melanoma) of 3.07 µM. It also gave a GI50 (NCI-H460 NSCLC) of 0.798 µM, a TGI (NCI-H460 NSCLC) of 2.07 µM and a GI50 (SF-539 CNS) of 0.505 µM. For the same compound, the TGI (SF-539 CNS) was 1.69 µM, the GI50 (HCT-15 colon) was 0.686 µM and the TGI (HCT-15 colon) was 1.95 µM. It also gave a GI50 (NCI-H226 lung) of 0.257 µM, a TGI (NCI-H226 lung) of 1.08 µM and a GI50 (ACHN renal) of 0.472 µM. It also gave a TGI (ACHN renal) of 1.66 µM, a GI50 (MALME-3M melanoma) of 1.99 µM and a TGI (MALME-3M melanoma) of 4.24 µM. The GI50 (CAKI-1 renal) was 0.675 µM, the TGI (CAKI-1 renal) was 1.97 µM and the GI50 (HOP-62 NSCLC) was 1.07 µM. For the same compound, the TGI (HOP-62 NSCLC) was 2.26 µM, the GI50 (IGROV1 ovarian) was 0.157 µM and the TGI (IGROV1 ovarian) was 1.35 µM. It also gave a GI50 (PC-3 prostate) of 0.462 µM, a TGI (PC-3 prostate) of 1.78 µM and a GI50 (T-47D breast) of 1.76 µM. The TGI (T-47D breast) was 3.23 µM, the GI50 (OVCAR-4 ovarian) was 1.25 µM and the TGI (OVCAR-4 ovarian) was 2.54 µM. For the same compound, the GI50 (EKVX NSCLC) was 0.505 µM, the TGI (EKVX NSCLC) was 2.03 µM and the GI50 (SF-295 CNS) was 1 µM. The TGI (SF-295 CNS) was 2.32 µM, the GI50 (HT29 colon) was 1.46 µM and the TGI (HT29 colon) was 2.8 µM. It also gave a GI50 (SF-268 CNS) of 1.05 µM, a TGI (SF-268 CNS) of 2.25 µM and a GI50 (SN12C renal) of 0.0538 µM. For the same compound, the TGI (SN12C renal) was 0.71 µM, the GI50 (M14 melanoma) was 1.61 µM and the TGI (M14 melanoma) was 2.97 µM. For the same compound, the GI50 (NCI-H23 lung) was 1.47 µM, the TGI (NCI-H23 lung) was 2.86 µM and the GI50 (LOX IMVI melanoma) was 1.11 µM. The TGI (LOX IMVI melanoma) was 2.31 µM, the GI50 (A549 NSCLC) was 1.46 µM and the TGI (A549 NSCLC) was 2.84 µM. For the same compound, the GI50 (UACC-257 melanoma) was 1.72 µM, the TGI (UACC-257 melanoma) was 3.1 µM and the GI50 (A498 renal) was 0.182 µM. The TGI (A498 renal) was 0.496 µM, the GI50 (OVCAR-8 ovarian) was 1.1 µM and the TGI (OVCAR-8 ovarian) was 2.31 µM. For the same compound, the GI50 (OVCAR-5 ovarian) was 1.98 µM, the TGI (OVCAR-5 ovarian) was 3.4 µM and the GI50 (SK-MEL-5 melanoma) was 0.312 µM. It also gave a TGI (SK-MEL-5 melanoma) of 1.66 µM, a GI50 (MDA-MB-468 breast) of 1.32 µM and a TGI (MDA-MB-468 breast) of 2.61 µM. For the same compound, the GI50 (HCT-116 colon) was 1.03 µM, the TGI (HCT-116 colon) was 2.23 µM and the GI50 (HCC-2998 colon) was 0.54 µM. The TGI (HCC-2998 colon) was 1.98 µM, the GI50 (MCF7 breast) was 0.582 µM and the TGI (MCF7 breast) was 2.37 µM. It also gave a GI50 (U251 glioblastoma) of 1.08 µM, a TGI (U251 glioblastoma) of 2.28 µM and a GI50 (COLO 205 colon) of 1.27 µM. For the same compound, the TGI (COLO 205 colon) was 2.53 µM, the GI50 (MDA-MB-435 melanoma) was 1.34 µM and the TGI (MDA-MB-435 melanoma) was 2.63 µM. For the same compound, the GI50 (HL-60(TB) leukemia) was 0.495 µM, the TGI (HL-60(TB) leukemia) was 1.15 µM and the GI50 (NCI/ADR-RES ovarian) was 1.24 µM. For the same compound, the TGI (NCI/ADR-RES ovarian) was 2.52 µM, the GI50 (RXF 393 renal) was 1.01 µM and the TGI (RXF 393 renal) was 2.22 µM. It also gave a GI50 (SNB-75 CNS) of 0.554 µM, a TGI (SNB-75 CNS) of 2.04 µM and a GI50 (RPMI-8226 leukemia) of 0.685 µM. For the same compound, the TGI (RPMI-8226 leukemia) was 1.86 µM, the GI50 (UACC-62 melanoma) was 0.636 µM and the TGI (UACC-62 melanoma) was 1.89 µM. It also gave a GI50 (DU-145 prostate) of 1.05 µM, a TGI (DU-145 prostate) of 2.29 µM and a GI50 (OVCAR-3 ovarian) of 0.186 µM. The TGI (OVCAR-3 ovarian) was 0.946 µM, the GI50 (NCI-H322M lung) was 0.727 µM and the TGI (NCI-H322M lung) was 2.01 µM. It also gave a GI50 (SK-OV-3 ovarian) of 0.275 µM, a TGI (SK-OV-3 ovarian) of 1.33 µM and a GI50 (HOP-92 NSCLC) of 1.25 µM. For the same compound, the TGI (HOP-92 NSCLC) was 2.65 µM, the GI50 (HS 578T breast) was 0.215 µM and the TGI (HS 578T breast) was 0.86 µM. For the same compound, the GI50 (MDA-MB-231 breast) was 1.3 µM, the TGI (MDA-MB-231 breast) was 2.65 µM and the GI50 (SNB-19 CNS) was 1.47 µM. For the same compound, the TGI (SNB-19 CNS) was 2.87 µM, the GI50 (NCI-H522 lung) was 1.48 µM and the TGI (NCI-H522 lung) was 2.81 µM. The GI50 (SR leukemia) was 1.14 µM, the TGI (SR leukemia) was 2.35 µM and the GI50 (BT-549 breast) was 0.574 µM. It also gave a TGI (BT-549 breast) of 1.91 µM, a GI50 (MOLT-4 leukemia) of 1.9 µM and a TGI (MOLT-4 leukemia) of 3.32 µM.
